Results reported in patent US20170216234A1, “BENZOATES FOR USE IN TREATING DEMENTIA” (priority 2014, published 2017).

Columns and labels:
AD patients = settings: some clinical studies; cited from earlier work
neuron death = settings: cited from earlier work
healthy humans = settings: cited from earlier work
[1] = both in vitro and in vivo studies; cited from earlier work
MCI and mild AD = settings: cited from earlier work
MCI = settings: treatment of MCI; cited from earlier work
[2] = tested on: patients with aMCI or mild AD; assay: Side effects, Udvalg for Kliniske Undersogelser Side-effects Rating Scale, in 24-week trial; type: in vivo, human
Description: Systemic side effects of treatments were evaluated by means of physical and neurological examinations and laboratory tests including CBC and biochemistry and reviewed by applying the Udvalg for Kliniske Undersogelser Side-effects Rating Scale at the baseline and weeks 8, 16, and 24.

[3] = Brain mass by magnetic resonance imaging study; type: in vivo
[4] = tested on: patients with schizophrenia; settings: 1000 mg/day, cited from earlier work
NMDAR models = settings: preclinical studies; cited from earlier work
glial cells = settings: preclinical studies; cited from earlier work
[5] = tested on: patients with aMCI or mild AD; assay: CIBIC-plus in 24-week trial
[6] = tested on: patients with aMCI or mild AD; assay: ADAS-cog in 24-week randomized double-blind placebo-controlled trial; settings: for ADAS-cog score, mean difference from baseline: all subjects
[7] = tested on: patients with aMCI or mild AD; assay: Additional cognition composite (speed of processing, working memory, verbal learning and memory) in 24-week trial

For `N[C@@H]1CONC1=O` [D-cycloserine], the “Score on the cognitive subscale of the Alzheimer's Disease Assessment Scale (ADAS-cog)” value (AD patients) is given as “improve their score”.
In the case of `N[C@H](CO)C(=O)O` [D-serine], the “Extent of neuron death” value (neuron death) is given as “significantly decreases”.
For `CNC1(c2ccccc2Cl)CCCCC1=O` (centres unmarked) [Ketamine], the “Spatial learning and verbal information ability” value (healthy humans) is given as “impaired”.
For `C[C@]12N[C@H](Cc3ccccc31)c1ccccc12` [MK-801], the Apoptosis and neurodegeneration [1] is listed as “induce apoptosis and neurodegeneration”.
For `CC12CC3CC(C)(C1)CC(N)(C3)C2` [Memantine], the “Efficacy in treating MCI (British Association for Psychopharmacology consensus statement)” value (MCI and mild AD; MCI) is given as “neither AChEIs nor memantine is effective” and the “Efficacy at the early phase, including MCI and mild AD” value (MCI and mild AD; human, in vivo) is given as “limited efficacy”.
For `Nc1nc2ncc(CNc3ccc(C(=O)N[C@@H](CCC(=O)O)C(=O)O)cc3)nc2c(=O)[nH]1` [folic acid], the Cognitive enhancing effect (MCI) is listed as “failed to show convincing evidence”.
In the case of `NC(=O)CN1CCCC1=O` [piracetam, reference compound], the Cognitive enhancing effect (MCI) is listed as “failed to show convincing evidence”.
With `O=C([O-])c1ccccc1.[Na+]` [sodium benzoate] the Tolerability ([2]; 24-week treatment) was “well-tolerated”, the “Reported side effects on Udvalg for Kliniske Undersogelser Side-effects Rating Scale” value ([2]; all visits) was “no reported side effect” and the Brain mass [3] was “can increase the brain mass”. The “Side effects in earlier schizophrenia study” value ([4]; chronic schizophrenia) was “without obvious side effects”, the Neurocognitive function ([4]; patients with schizophrenia) was “beneficial” and the “Effect in NMDAR models such as pain relief” value (NMDAR models) was “effective”. The “Cell death in glial cells” value (glial cells) was “partially prevented cell death”, the “CIBIC-plus vs placebo, subgroup” value ([5]; CDR 1 subgroup, week 24 and endpoint (p=.040, p=.018)) was “greater improvement than placebo therapy” and the “CIBIC-plus score, subgroup” value ([5]; aMCI (CDR .5) subgroup) was “did no improve”. For the same molecule, the “CIBIC-plus effect size vs placebo” value ([5]; at endpoint) was “.73”, the “CIBIC-plus score vs placebo” value ([5]; week 16 (p=.015), week 24 (p=.016), endpoint (p=.012), all subjects) was “greater improvement” and the “ADAS-cog vs placebo, subgroup” value ([6]; CDR 1 subgroup, weeks 16 and 24 and endpoint (p=0151, p=.0387, p=.0092)) was “greater improvement than placebo therapy”. The “ADAS-cog vs placebo, subgroup” value ([6]; CDR .5 subgroup, throughout the study (p>.05)) was “not superior to the placebo therapy”, the “ADAS-cog effect size (Cohen's d) vs placebo” value ([6]; at the end of the study) was “.86” and the “ADAS-cog score, mean difference from baseline” value (shortened to “ADAS-cog score, mean difference”) ([6]; endpoint, p=.0031 vs placebo) was 5.9. The “ADAS-cog score, mean difference” value ([6]; week 8, 250-750 mg/day, p=.3730 vs placebo) was 3.8, the “ADAS-cog score, mean difference” value ([6]; week 16, p=.0021 vs placebo) was 5.4 and the “ADAS-cog score, mean difference” value ([6]; week 24, p=.0116 vs placebo) was 5.9. For the same molecule, the “Additional cognition composite vs placebo, subgroup” value ([7]; CDR 1 subgroup, p=.041) was “better efficacy”, the “Additional cognition composite vs placebo, subgroup” value ([7]; CDR .5 subgroup, p=.063) was “borderline significance” and the “Additional cognition composite effect size vs placebo” value ([7]; endpoint) was “.78”. The “Additional cognition composite vs placebo” value ([7]; endpoint, all subjects, p=.007) was “better than placebo”.
In the case of omega-3 fatty acid, the Cognitive enhancing effect (MCI) is listed as “failed to show convincing evidence”.
In the case of vitamin E, the Cognitive enhancing effect (MCI) is listed as “failed to show convincing evidence”.
